Data published in ChEMBL document CHEMBL3608278 (J Med Chem, 2015).
pIC50: −log10 of the molar value.

Tests used:
[1] = target: T1, Potassium voltage-gated channel subfamily A member 3 (Homo sapiens, UniProt P22001); experiment: cell-based; set-up: species or system Blood
[2] = target: T1, Potassium voltage-gated channel subfamily A member 3; set-up: species or system Blood

T1 sequence (P22001 whole entry): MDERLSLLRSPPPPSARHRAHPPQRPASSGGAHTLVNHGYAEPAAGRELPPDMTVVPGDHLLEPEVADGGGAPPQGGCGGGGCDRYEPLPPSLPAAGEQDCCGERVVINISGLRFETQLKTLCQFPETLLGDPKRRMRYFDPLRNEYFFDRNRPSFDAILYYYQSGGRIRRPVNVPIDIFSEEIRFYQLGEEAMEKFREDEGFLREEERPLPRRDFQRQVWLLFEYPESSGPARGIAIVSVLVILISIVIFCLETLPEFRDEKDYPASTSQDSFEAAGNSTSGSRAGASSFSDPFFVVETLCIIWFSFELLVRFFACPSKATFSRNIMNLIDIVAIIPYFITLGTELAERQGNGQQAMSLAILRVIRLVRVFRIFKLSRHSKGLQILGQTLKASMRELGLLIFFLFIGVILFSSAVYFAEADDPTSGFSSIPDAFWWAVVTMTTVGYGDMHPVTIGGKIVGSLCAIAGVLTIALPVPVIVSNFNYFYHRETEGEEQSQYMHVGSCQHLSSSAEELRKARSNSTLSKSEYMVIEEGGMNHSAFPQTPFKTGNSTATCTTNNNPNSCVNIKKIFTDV

Row | SMILES | pIC50 [1] | pIC50 [2]
1 | CC[C@H](C)[C@@H]1NC(=O)[C@@H](NC(=O)[C@H](CO)NC(=O)[C@@H](N)CCCNC(=N)N)CSSC[C@@H](C(=O)O)NC(=O)[C@H]([C@@H](C)O)NC(=O)CNC(=O)[C@@H]2CSSC[C@@H]3NC(=O)[C@H](CCC(N)=O)NC(=O)[C@H](Cc4ccccc4)NC(=O)[C@H](C)NC(=O)[C@H]([C@@H](C)O)NC(=O)[C@H](CSSC[C@H](NC(=O)[C@H](Cc4ccccc4)NC(=O)[C@H](CO)NC(=O)[C@H](CC(C)C)NC(=O)[C@H](CCCNC(=N)N)NC(=O)[C@H](Cc4ccc(O)cc4)NC(=O)[C@H](CCCCN)NC(=O)[C@H](CCSC)NC(=O)[C@H](CO)NC(=O)[C@H](Cc4cnc[nH]4)NC(=O)[C@H](CCCCN)NC3=O)C(=O)N[C@@H](CCCNC(=N)N)C(=O)N[C@@H](CCCCN)C(=O)N[C@@H]([C@@H](C)O)C(=O)N2)NC(=O)[C@H](CCCNC(=N)N)NC(=O)[C@H](CO)NC(=O)[C@H](CCCCN)NC(=O)[C@@H]2CCCN2C(=O)[C@H](CCCNC(=N)N)NC(=O)[C@H]([C@@H](C)O)NC(=O)[C@H](CC(=O)O)NC1=O | 8.18 | 8.00
2 | CC[C@H](C)[C@@H]1NC(=O)[C@H]([C@@H](C)O)NC(=O)[C@H](CC(=O)O)NC(=O)[C@H](CCCNC(=N)N)NC(=O)[C@@H](NC(=O)[C@H](CO)NC(=O)[C@@H](N)CCCNC(=N)N)CSSC[C@@H](C(=O)O)NC(=O)[C@H]([C@@H](C)O)NC(=O)CNC(=O)[C@@H]2CSSC[C@@H]3NC(=O)[C@H](CCC(N)=O)NC(=O)[C@H](Cc4ccccc4)NC(=O)[C@H](C)NC(=O)[C@H]([C@@H](C)O)NC(=O)[C@H](CSSC[C@H](NC(=O)[C@H](Cc4ccccc4)NC(=O)[C@H](CO)NC(=O)[C@H](CC(C)C)NC(=O)[C@H](CCCNC(=N)N)NC(=O)[C@H](Cc4ccc(O)cc4)NC(=O)[C@H](CCCCN)NC(=O)[C@H](CCSC)NC(=O)[C@H](CO)NC(=O)[C@H](Cc4cnc[nH]4)NC(=O)[C@H](CCCCN)NC3=O)C(=O)N[C@@H](CCCNC(=N)N)C(=O)N[C@@H](CCCCN)C(=O)N[C@@H]([C@@H](C)O)C(=O)N2)NC(=O)[C@H](CCCNC(=N)N)NC(=O)[C@H](CO)NC(=O)[C@H](CCCCN)NC(=O)[C@@H]2CCCN2C1=O | 10.01 | 9.91
3 | CC[C@H](C)[C@@H]1NC(=O)[C@@H](NC(=O)[C@H](CO)NC(=O)[C@@H](N)CCCNC(=N)N)CSSC[C@@H](C(=O)O)NC(=O)[C@H]([C@@H](C)O)NC(=O)CNC(=O)[C@@H]2CSSC[C@@H]3NC(=O)[C@H](CCC(N)=O)NC(=O)[C@H](Cc4ccccc4)NC(=O)[C@H](C)NC(=O)[C@H]([C@@H](C)O)NC(=O)[C@H](CSSC[C@H](NC(=O)[C@H](Cc4ccccc4)NC(=O)[C@H](CO)NC(=O)[C@H](CC(C)C)NC(=O)[C@H](CCCNC(=N)N)NC(=O)[C@H](Cc4ccc(O)cc4)NC(=O)[C@H](CCCCN)NC(=O)[C@H](CCSC)NC(=O)[C@H](CO)NC(=O)[C@H](Cc4c[nH]cn4)NC(=O)[C@H](CCCCN)NC3=O)C(=O)N[C@@H](CCCNC(=N)N)C(=O)N[C@@H](CCCCN)C(=O)N[C@@H]([C@@H](C)O)C(=O)N2)NC(=O)[C@H](CCCNC(=N)N)NC(=O)[C@H](CO)NC(=O)[C@H](CCCCN)NC(=O)[C@@H]2CCCN2C(=O)[C@H]([C@@H](C)CC)NC(=O)[C@H](CCCNC(=N)N)NC(=O)[C@H](CC(=O)O)NC1=O | 9.67 | 9.52
4 | CC[C@H](C)[C@@H]1NC(=O)[C@@H](NC(=O)[C@H](CO)NC(=O)[C@@H](N)CCCNC(=N)N)CSSC[C@@H](C(=O)O)NC(=O)[C@H]([C@@H](C)O)NC(=O)CNC(=O)[C@@H]2CSSC[C@@H]3NC(=O)[C@H](CCC(N)=O)NC(=O)[C@H](Cc4ccccc4)NC(=O)[C@H](C)NC(=O)[C@H]([C@@H](C)O)NC(=O)[C@H](CSSC[C@H](NC(=O)[C@H](Cc4ccccc4)NC(=O)[C@H](CO)NC(=O)[C@H](CC(C)C)NC(=O)[C@H](CCCNC(=N)N)NC(=O)[C@H](Cc4ccc(O)cc4)NC(=O)[C@H](CCCCN)NC(=O)[C@H](CCSC)NC(=O)[C@H](CO)NC(=O)[C@H](Cc4cnc[nH]4)NC(=O)[C@H](CCCCN)NC3=O)C(=O)N[C@@H](CCCNC(=N)N)C(=O)N[C@@H](CCCCN)C(=O)N[C@@H]([C@@H](C)O)C(=O)N2)NC(=O)[C@H](CCCNC(=N)N)NC(=O)[C@H](CO)NC(=O)[C@H](CCCNC(=N)N)NC(=O)[C@@H]2CCCN2C(=O)[C@H]([C@@H](C)CC)NC(=O)[C@H]([C@@H](C)O)NC(=O)[C@H](CC(=O)O)NC1=O | 10.12 | 10.08
5 | CC[C@H](C)[C@@H]1NC(=O)[C@@H](NC(=O)[C@H](CO)NC(=O)[C@@H](N)CCCNC(=N)N)CSSC[C@@H](C(=O)O)NC(=O)[C@H]([C@@H](C)O)NC(=O)CNC(=O)[C@@H]2CSSC[C@@H]3NC(=O)[C@H](CCC(N)=O)NC(=O)[C@H](Cc4ccccc4)NC(=O)[C@H](C)NC(=O)[C@H]([C@@H](C)O)NC(=O)[C@H](CSSC[C@H](NC(=O)[C@H](Cc4ccccc4)NC(=O)[C@H](CO)NC(=O)[C@H](CCCNC(=N)N)NC(=O)[C@H](CCCNC(=N)N)NC(=O)[C@H](Cc4ccc(O)cc4)NC(=O)[C@H](CCCCN)NC(=O)[C@H](CCSC)NC(=O)[C@H](CO)NC(=O)[C@H](Cc4cnc[nH]4)NC(=O)[C@H](CCCCN)NC3=O)C(=O)N[C@@H](CCCNC(=N)N)C(=O)N[C@@H](CCCCN)C(=O)N[C@@H]([C@@H](C)O)C(=O)N2)NC(=O)[C@H](CCCNC(=N)N)NC(=O)[C@H](CO)NC(=O)[C@H](CCCCN)NC(=O)[C@@H]2CCCN2C(=O)[C@H]([C@@H](C)CC)NC(=O)[C@H]([C@@H](C)O)NC(=O)[C@H](CC(=O)O)NC1=O | 9.86 | 9.71
6 | CC[C@H](C)[C@@H]1NC(=O)[C@@H](NC(=O)[C@H](CO)NC(=O)[C@@H](N)CCCNC(=N)N)CSSC[C@@H](C(=O)O)NC(=O)[C@H]([C@@H](C)O)NC(=O)CNC(=O)[C@@H]2CSSC[C@@H]3NC(=O)[C@H](CCC(N)=O)NC(=O)[C@H](Cc4ccccc4)NC(=O)[C@H](C)NC(=O)[C@H]([C@@H](C)O)NC(=O)[C@H](CSSC[C@H](NC(=O)[C@H](Cc4ccccc4)NC(=O)[C@H](CCCNC(=N)N)NC(=O)[C@H](CC(C)C)NC(=O)[C@H](CCCNC(=N)N)NC(=O)[C@H](Cc4ccc(O)cc4)NC(=O)[C@H](CCCCN)NC(=O)[C@H](CCSC)NC(=O)[C@H](CO)NC(=O)[C@H](Cc4cnc[nH]4)NC(=O)[C@H](CCCCN)NC3=O)C(=O)N[C@@H](CCCNC(=N)N)C(=O)N[C@@H](CCCCN)C(=O)N[C@@H]([C@@H](C)O)C(=O)N2)NC(=O)[C@H](CCCNC(=N)N)NC(=O)[C@H](CO)NC(=O)[C@H](CCCCN)NC(=O)[C@@H]2CCCN2C(=O)[C@H]([C@@H](C)CC)NC(=O)[C@H]([C@@H](C)O)NC(=O)[C@H](CC(=O)O)NC1=O | 9.80 | 9.43
